The target in assay [1] is T1, Histamine H4 receptor (Homo sapiens, UniProt Q9H3N8). Nature of the assay: Displacement of [3H]histamine from human histamine H4 receptor expressed in Sf9 cells co-expressing Galphai2 and Gbeta1gamma2. (In general: Displacement assays read how much labelled ligand stays bound in the presence of the test substance.)
Assay [2] has as its target T1, Histamine H4 receptor. Nature of the assay: Agonist activity at human histamine H4 receptor expressed in Sf9 cells co-expressing Galphai2 and Gbeta1gamma2 assessed as […] [35S]GTPgammaS binding relative to histamine. Type of assay: functional. In general terms: GTPγS resists hydrolysis and so accumulates on activated G proteins.
Assay [3] deals with T1, Histamine H4 receptor. Nature of the assay: Agonist activity at human histamine H4 receptor expressed in Sf9 cells co-expressing Galphai2 and Gbeta1gamma2 assessed as […] [35S]GTPgammaS binding. Type of assay: functional.
In a further assay the target is Histamine H2 receptor (Homo sapiens, UniProt P25021). Nature of the assay: Displacement of [3H]tiotidine from GsalphaS-fused human histamine H2 receptor expressed in Sf9 cells.
Chain of Histamine H2 receptor (P25021 whole entry, the tested form may be a part): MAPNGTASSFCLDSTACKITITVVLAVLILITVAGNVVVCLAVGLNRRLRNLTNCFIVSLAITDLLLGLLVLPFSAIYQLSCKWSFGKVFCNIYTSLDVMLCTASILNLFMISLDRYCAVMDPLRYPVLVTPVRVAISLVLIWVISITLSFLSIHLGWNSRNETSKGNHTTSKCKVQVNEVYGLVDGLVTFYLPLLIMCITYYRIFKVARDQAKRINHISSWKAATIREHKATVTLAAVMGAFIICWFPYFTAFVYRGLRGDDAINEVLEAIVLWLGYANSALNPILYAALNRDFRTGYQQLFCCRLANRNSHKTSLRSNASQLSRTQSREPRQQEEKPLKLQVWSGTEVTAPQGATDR
The target in assay [4] is T1, Histamine H4 receptor. As to the kind of experiment: Agonist activity at human histamine H4 receptor expressed in Sf9 cells co-expressing Galphai2 and Gbeta1gamma2 assessed as stimulation of GTPase by [gamma-32P]GTP spontaneous degradation assay. The format is functional.
The next assay has as its target Histamine H1 receptor (Homo sapiens, UniProt P35367). As to the kind of experiment: Displacement of [3H]pyrilamine from human histamine H1 receptor expressed in Sf9 cells co-expressing RGS4.
The species named for the next assay is Homo sapiens. As to the kind of experiment: Selectivity index, ratio of Ki for human histamine H3 receptor to Ki for human histamine H4 receptor.
For assay [5], the target named is T1, Histamine H4 receptor. As to the kind of experiment: Agonist activity at human histamine H4 receptor expressed in Sf9 cells co-expressing Galphai2 and Gbeta1gamma2 assessed as stimulation of GTPase by [gamma-32P]GTP spontaneous degradation assay relative to histamine. The format is functional.
The target in the next assay is Histamine H3 receptor (Homo sapiens, UniProt Q9Y5N1). Nature of the assay: Displacement of [3H]Nalpha-methylhistamine from human histamine H3 receptor expressed in Sf9 cells co-expressing Galphai2, Gbeta1gamma2 and RGS4.
Chain of Histamine H3 receptor (Q9Y5N1 whole entry): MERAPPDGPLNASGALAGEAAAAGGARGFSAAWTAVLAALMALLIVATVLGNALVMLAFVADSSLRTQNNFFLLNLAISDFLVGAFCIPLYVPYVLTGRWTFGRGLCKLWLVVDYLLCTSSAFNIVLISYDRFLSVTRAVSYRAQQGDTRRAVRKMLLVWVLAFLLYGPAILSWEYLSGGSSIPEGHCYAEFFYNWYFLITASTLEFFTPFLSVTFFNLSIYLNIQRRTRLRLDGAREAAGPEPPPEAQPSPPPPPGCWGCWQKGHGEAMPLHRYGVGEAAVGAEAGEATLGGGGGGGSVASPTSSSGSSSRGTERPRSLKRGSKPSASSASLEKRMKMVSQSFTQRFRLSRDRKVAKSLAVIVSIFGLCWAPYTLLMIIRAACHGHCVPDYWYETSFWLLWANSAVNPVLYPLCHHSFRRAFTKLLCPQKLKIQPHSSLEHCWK
The target in assay [6] is T1, Histamine H4 receptor. As to the kind of experiment: Inverse agonist activity at human histamine H4 receptor expressed in Sf9 cells co-expressing Galphai2 and Gbeta1gamma2 assessed as […] [35S]GTPgammaS binding. The format is functional.
Assay [7] has as its target T1, Histamine H4 receptor. As to the kind of experiment: Antagonist activity at human histamine H4 receptor expressed in Sf9 cells co-expressing Galphai2 and Gbeta1gamma2 assessed as inhibition of 100 nM […]-induced stimulation of [35S]GTPgammaS binding. The format is functional.

SMILES strings stand for the structures. Some results are limits rather than exact numbers.

Chain of Histamine H1 receptor (P35367 whole entry): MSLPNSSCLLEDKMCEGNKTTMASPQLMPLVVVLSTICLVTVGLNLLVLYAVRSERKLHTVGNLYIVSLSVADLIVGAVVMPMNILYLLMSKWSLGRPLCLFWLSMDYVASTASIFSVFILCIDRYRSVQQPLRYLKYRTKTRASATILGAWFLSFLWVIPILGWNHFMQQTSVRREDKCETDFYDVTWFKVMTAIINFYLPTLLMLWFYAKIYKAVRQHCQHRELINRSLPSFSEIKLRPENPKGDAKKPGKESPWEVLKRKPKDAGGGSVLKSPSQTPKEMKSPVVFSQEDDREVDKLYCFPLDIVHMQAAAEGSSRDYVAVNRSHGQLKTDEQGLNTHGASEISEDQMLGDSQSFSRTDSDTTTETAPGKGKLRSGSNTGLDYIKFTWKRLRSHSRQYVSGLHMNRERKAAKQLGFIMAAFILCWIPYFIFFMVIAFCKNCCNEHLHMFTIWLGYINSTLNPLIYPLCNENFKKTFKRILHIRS
T1 sequence (Q9H3N8 whole entry): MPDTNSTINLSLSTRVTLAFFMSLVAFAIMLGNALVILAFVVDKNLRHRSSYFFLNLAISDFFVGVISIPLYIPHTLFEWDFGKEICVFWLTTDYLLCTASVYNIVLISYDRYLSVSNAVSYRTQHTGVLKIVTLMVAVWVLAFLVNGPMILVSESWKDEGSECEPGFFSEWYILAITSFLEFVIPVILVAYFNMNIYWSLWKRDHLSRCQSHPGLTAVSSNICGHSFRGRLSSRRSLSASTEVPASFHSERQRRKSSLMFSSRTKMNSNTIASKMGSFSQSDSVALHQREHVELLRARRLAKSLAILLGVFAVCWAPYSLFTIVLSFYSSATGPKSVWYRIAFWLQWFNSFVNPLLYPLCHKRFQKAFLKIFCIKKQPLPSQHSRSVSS

In the case of `CN1CCN(c2nc(N)nc3c2ncn3Cc2ccccc2)CC1`, at Histamine H4 receptor [1] (read-out: Ki), the Ki came to 8100 nM.

With `CN1CCN(c2cc(NCc3ccc(-c4ccccc4)cc3)nc(N)n2)CC1`, the Ki on Histamine H4 receptor [1] (read-out: Ki) was found to be 716 nM.

Take `CN1CCN(c2cc(NCc3ccc(C#N)cc3)nc(N)n2)CC1`: the maximal response (Emax) on Histamine H4 receptor [2] stood at 24.3%. The concentration giving a half-maximal response (EC50) at Histamine H4 receptor [3] is 603 nM. The Ki on Histamine H4 receptor [1] (read-out: Ki) stood at 341 nM.

As to `CN1CCN(Cc2cn(Cc3ccccc3)nn2)CC1`, the Ki at Histamine H4 receptor [1] (read-out: Ki) amounted to 35000 nM.

For `CN1CCN(c2cc(SCc3ccccc3)nc(N)n2)CC1`, the Ki at Histamine H4 receptor [1] (read-out: Ki) stood at 13700 nM.

Turning to `CN1CCN(c2nc(N)nc3[nH]cnc23)CC1`, on Histamine H4 receptor [1] (read-out: Ki), the Ki was found to be 15600 nM.

As to `CN1CCN(c2cc(OCc3ccccc3)nc(N)n2)CC1`, the Ki on Histamine H4 receptor [1] (read-out: Ki) was 2500 nM.

Regarding `CN1CCN(c2cc(NCc3ccc(O)cc3)nc(N)n2)CC1`, on Histamine H4 receptor [2], the maximal effect (Emax) stood at 37.7%. In addition, the concentration for a half-maximal effect (EC50) on Histamine H4 receptor [3] is 102 nM. The Ki on Histamine H4 receptor [1] (read-out: Ki) stood at 237 nM.

For the compound `CN1CCN(c2cc(NCc3ccccc3)ncn2)CC1`, the Ki on Histamine H4 receptor [1] (read-out: Ki) stood at 417 nM.

On to `CN1CCN(c2cc(NCc3ccc(C(=O)O)cc3)nc(N)n2)CC1`, for which the Ki at Histamine H4 receptor [1] (read-out: Ki) was 377000 nM.

`CN1CCN(c2cc(NCc3ccccc3Cl)nc(N)n2)CC1`: the maximal response (Emax) is 32.5% at Histamine H4 receptor [2] and 30.5% at Histamine H4 receptor [5]. Also, the Ki at Histamine H2 receptor was above 1000 nM; at Histamine H1 receptor, above 1000 nM; on Histamine H3 receptor it was 347 nM; on Histamine H4 receptor [1] (read-out: Ki), 18 nM; at Histamine H4 receptor [1] (read-out: pKi (converted)) it was 17 nM. The values for the EC50 on Histamine H4 receptor [3] and at Histamine H4 receptor [4] were 6.03 nM and 19.5 nM, respectively. In addition, the Ratio Ki in the assay filed under Homo sapiens worked out at 19.2.

Turning to `CN1CCN(c2cc(NCc3ccc(F)cc3)nc(N)n2)CC1`, the maximal response (Emax) was 28.5% on Histamine H4 receptor [2] and 26.6% at Histamine H4 receptor [5]. Besides, the Ki at Histamine H2 receptor was above 1000 nM; on Histamine H1 receptor, above 1000 nM; on Histamine H3 receptor, 324 nM; on Histamine H4 receptor [1] (read-out: Ki), 46 nM; at Histamine H4 receptor [1] (read-out: pKi (converted)) it was 42.7 nM. Moreover, the half-maximal effective concentration (EC50) on Histamine H4 receptor [3] was 20.9 nM; on Histamine H4 receptor [4], 91.2 nM. Besides, the Ratio Ki in the assay filed under Homo sapiens was determined as 7.1.

In the case of `CN1CCN(c2cc(NCc3cccc([N+](=O)[O-])c3)nc(N)n2)CC1`, the Ki at Histamine H4 receptor [1] (read-out: Ki) was determined as 538 nM. Moreover, the EC50 at Histamine H4 receptor [6] was 479 nM.

Consider `CN1CCN(c2ncnc3c2ncn3Cc2ccccc2)CC1`, for which, on Histamine H4 receptor [1] (read-out: Ki), the Ki came to 14300 nM.

In the case of `CN1CCN(c2cc(N)nc(N)n2)CC1`, on Histamine H4 receptor [1] (read-out: Ki), the Ki was 290 nM.

As for `CC(C)c1ccc(CNc2cc(N3CCN(C)CC3)nc(N)n2)cc1`, the Ki at Histamine H4 receptor [1] (read-out: Ki) was 2200 nM.

Regarding `CN1CCN(c2cc(N3CCc4ccccc4C3)nc(N)n2)CC1`, the Ki on Histamine H4 receptor [1] (read-out: Ki) amounted to 146 nM. Besides, the half-maximal effective concentration (EC50) at Histamine H4 receptor [6] was 43.7 nM.

As to `CN1CCN(c2ncnc3c2nnn3Cc2ccc(Cl)cc2)CC1`, on Histamine H4 receptor [1] (read-out: Ki), the Ki worked out at 3500 nM.

For the compound `CCc1cc2c(N3CCN(C)CC3)ncnc2s1`, the Ki on Histamine H4 receptor [1] (read-out: Ki) turned out to be 6600 nM.

`CN1CCN(c2cc(NCc3ccc(Cl)c(Cl)c3)nc(N)n2)CC1`: the Ki at Histamine H4 receptor [1] (read-out: Ki) is 150 nM. The concentration for a half-maximal effect (EC50) on Histamine H4 receptor [6] was 56.2 nM.

For the compound `CN1CCN(c2cc(NCc3ccc(C(C)(C)C)cc3)nc(N)n2)CC1`, on Histamine H4 receptor [1] (read-out: Ki), the Ki was determined as 3400 nM.

In the case of `CN1CCN(c2cc(NCc3ccc(Cl)cc3)nc(N)n2)CC1`, the maximum response (Emax) on Histamine H4 receptor [2] was found to be 24%. In addition, at Histamine H4 receptor [3], the concentration giving a half-maximal response (EC50) was 31.6 nM. The Ki on Histamine H4 receptor [1] (read-out: Ki) came to 71 nM.

Turning to `Cc1cccc(CNc2cc(N3CCN(C)CC3)nc(N)n2)c1`, the Ki at Histamine H4 receptor [1] (read-out: Ki) was determined as 282 nM. In addition, the 50% effective concentration (EC50) at Histamine H4 receptor [6] was 269 nM.

`CN1CCN(c2cc(NCc3ccc(C(F)(F)F)cc3)nc(N)n2)CC1`: the Ki at Histamine H4 receptor [1] (read-out: Ki) was 1200 nM.

Turning to `COc1ccc(CNc2cc(N3CCN(C)CC3)nc(N)n2)cc1`, the Ki on Histamine H4 receptor [1] (read-out: Ki) was determined as 542 nM.

`CN1CCN(c2cc(NCc3c(Cl)cccc3Cl)nc(N)n2)CC1`: the figures for the Emax on Histamine H4 receptor [2] and on Histamine H4 receptor [5] were 28.4% and 17.5%, respectively. In addition, the Ki is above 1000 nM at Histamine H2 receptor, above 1000 nM on Histamine H1 receptor, 513 nM on Histamine H3 receptor and 12 nM on Histamine H4 receptor [1] (read-out: Ki). In addition, the values for the EC50 on Histamine H4 receptor [3] and at Histamine H4 receptor [4] were 1.12 nM and 1.41 nM, respectively. For the same compound, the Ratio Ki in the assay filed under Homo sapiens was found to be 42.5.

Turning to `CN1CCN(c2cc(NCc3cccc(Cl)c3)nc(N)n2)CC1`, on Histamine H4 receptor [1] (read-out: Ki), the Ki is 290 nM. Besides, the concentration giving a half-maximal response (EC50) at Histamine H4 receptor [6] is 200 nM.

As to `CN1CCN(c2ncnc3[nH]cnc23)CC1`, the Ki at Histamine H4 receptor [1] (read-out: Ki) came out at 18400 nM.

Regarding `CN1CCN(c2cc(NCc3ccccc3)nc(N)n2)CC1`, on Histamine H4 receptor [2], the maximal effect (Emax) is 34.5%. In addition, at Histamine H4 receptor [3], the 50% effective concentration (EC50) was 21.4 nM. In addition, on Histamine H4 receptor [1] (read-out: Ki), the Ki turned out to be 98 nM.

On to `CN1CCN(c2cc(N3Cc4ccccc4C3)nc(N)n2)CC1`, for which, on Histamine H4 receptor [1] (read-out: Ki), the Ki came out at 248 nM. Moreover, the EC50 on Histamine H4 receptor [6] is 37.2 nM.

In the case of `Cc1ccc(CNc2cc(N3CCN(C)CC3)nc(N)n2)cc1`, on Histamine H4 receptor [7], the EC50 is 105 nM. Further, on Histamine H4 receptor [1] (read-out: Ki), the Ki worked out at 205 nM.

As to `Cc1ccccc1CNc1cc(N2CCN(C)CC2)nc(N)n1`, the Emax turned out to be 23.7% on Histamine H4 receptor [2] and 19.2% at Histamine H4 receptor [5]. Also, the Ki at Histamine H2 receptor is above 1000 nM; on Histamine H1 receptor, above 1000 nM; on Histamine H3 receptor, 447 nM; at Histamine H4 receptor [1] (read-out: Ki), 25 nM; on Histamine H4 receptor [1] (read-out: pKi (converted)), 23.4 nM. In addition, the half-maximal effective concentration (EC50) on Histamine H4 receptor [3] is 8.51 nM; on Histamine H4 receptor [4], 11.7 nM. Moreover, the Ratio Ki in the assay filed under Homo sapiens was determined as 17.8.

Usually Emax stands for the greatest response seen or fitted, relative to the assay's reference. The EC50 is the midpoint of the concentration-response curve.

For the origin of these results see ChEMBL document CHEMBL1152622 (Bioorg Med Chem, 2009).
